From the NIST ThermoML archive (doi:10.1021/je700321s)

Assay: xn = mol fraction of the nth substance listed
Conditions: Liquid, Vibrating tube method

CC(C)O [propan-2-ol] + O=C=O
Conditions | mass density [kg/m3]
333.02 K, 8305 kPa, x2 = 0.6086 | 754.3
333.02 K, 8394 kPa, x2 = 0.4248 | 773.2
333.02 K, 8400 kPa, x2 = 0.6086 | 754.8
333.02 K, 8504 kPa, x2 = 0.6086 | 755.5
333.02 K, 8610 kPa, x2 = 0.6086 | 756
333.02 K, 8701 kPa, x2 = 0.6086 | 756.6
333.02 K, 8802 kPa, x2 = 0.4248 | 774.1
333.02 K, 8802 kPa, x2 = 0.6086 | 757.3
333.02 K, 8900 kPa, x2 = 0.6086 | 757.9
333.02 K, 8916 kPa, x2 = 0.4248 | 774.5
333.02 K, 9000 kPa, x2 = 0.4248 | 774.7
333.02 K, 9005 kPa, x2 = 0.6086 | 758.5
333.02 K, 9100 kPa, x2 = 0.4248 | 775
333.02 K, 9103 kPa, x2 = 0.6086 | 759
333.02 K, 9205 kPa, x2 = 0.4248 | 775.3
333.02 K, 9304 kPa, x2 = 0.4248 | 775.6
333.02 K, 9410 kPa, x2 = 0.4248 | 775.8
333.02 K, 9506 kPa, x2 = 0.4248 | 776.1
333.02 K, 9607 kPa, x2 = 0.4248 | 776.4
333.02 K, 9809 kPa, x2 = 0.4248 | 776.8
333.05 K, 4210 kPa, x2 = 0.2003 | 763.4
333.05 K, 4492 kPa, x2 = 0.2003 | 763.8
333.05 K, 4799 kPa, x2 = 0.2003 | 764.3
333.05 K, 5001 kPa, x2 = 0.2003 | 764.6
333.05 K, 5470 kPa, x2 = 0.2003 | 765.3
333.05 K, 5996 kPa, x2 = 0.2003 | 766.1
333.05 K, 6511 kPa, x2 = 0.2003 | 766.9
333.05 K, 7008 kPa, x2 = 0.2003 | 767.7
333.05 K, 7519 kPa, x2 = 0.2003 | 768.4
333.05 K, 8008 kPa, x2 = 0.2003 | 769.2
333.05 K, 8503 kPa, x2 = 0.2003 | 769.9
333.05 K, 9019 kPa, x2 = 0.2003 | 770.6
333.05 K, 9506 kPa, x2 = 0.2003 | 771.3
333.05 K, 9994 kPa, x2 = 0.2003 | 772.1
347.93 K, 7801 kPa, x2 = 0.4248 | 744.8
347.93 K, 7908 kPa, x2 = 0.4248 | 745.1
347.93 K, 7999 kPa, x2 = 0.4248 | 745.5
347.93 K, 8130 kPa, x2 = 0.4248 | 745.9
347.93 K, 8239 kPa, x2 = 0.4248 | 746.2
347.93 K, 8408 kPa, x2 = 0.4248 | 746.8
347.93 K, 8501 kPa, x2 = 0.4248 | 747.2
347.93 K, 8600 kPa, x2 = 0.4248 | 747.4
347.93 K, 8712 kPa, x2 = 0.4248 | 747.8
347.93 K, 8801 kPa, x2 = 0.4248 | 748.2
347.93 K, 8890 kPa, x2 = 0.4248 | 748.4
347.93 K, 9033 kPa, x2 = 0.4248 | 748.8
347.93 K, 9105 kPa, x2 = 0.4248 | 749.1
347.93 K, 9244 kPa, x2 = 0.4248 | 749.4
347.93 K, 9410 kPa, x2 = 0.4248 | 750
347.93 K, 9501 kPa, x2 = 0.4248 | 750.2
347.93 K, 9608 kPa, x2 = 0.4248 | 750.7
347.94 K, 9809 kPa, x2 = 0.6086 | 716
347.94 K, 9815 kPa, x2 = 0.6086 | 717
347.94 K, 9822 kPa, x2 = 0.6086 | 718.1
347.94 K, 9831 kPa, x2 = 0.6086 | 719.1
347.94 K, 9840 kPa, x2 = 0.6086 | 719.7
347.94 K, 9850 kPa, x2 = 0.6086 | 720
347.94 K, 9861 kPa, x2 = 0.6086 | 720
347.94 K, 9873 kPa, x2 = 0.6086 | 720.2
347.94 K, 9885 kPa, x2 = 0.6086 | 720.2
347.94 K, 9897 kPa, x2 = 0.6086 | 720.3
347.94 K, 9910 kPa, x2 = 0.6086 | 720.4
347.94 K, 9949 kPa, x2 = 0.6086 | 720.8
347.94 K, 10004 kPa, x2 = 0.6086 | 721.1
347.94 K, 10052 kPa, x2 = 0.6086 | 721.5
347.94 K, 10104 kPa, x2 = 0.6086 | 721.9
347.94 K, 10152 kPa, x2 = 0.6086 | 722.2
347.95 K, 3317 kPa, x2 = 0.139 | 742.5
347.95 K, 3516 kPa, x2 = 0.139 | 742.7
347.95 K, 4002 kPa, x2 = 0.139 | 743.5
347.95 K, 4464 kPa, x2 = 0.139 | 744.3
347.95 K, 5008 kPa, x2 = 0.139 | 745.1
347.95 K, 5502 kPa, x2 = 0.139 | 745.9
347.95 K, 6011 kPa, x2 = 0.139 | 746.7
347.95 K, 6501 kPa, x2 = 0.139 | 747.5
347.95 K, 7037 kPa, x2 = 0.139 | 748.3
347.95 K, 7523 kPa, x2 = 0.139 | 749.1
347.95 K, 8023 kPa, x2 = 0.139 | 749.8
347.95 K, 8497 kPa, x2 = 0.139 | 750.5
347.95 K, 8993 kPa, x2 = 0.139 | 751.3
347.95 K, 9568 kPa, x2 = 0.139 | 752.1
347.95 K, 10032 kPa, x2 = 0.139 | 752.8
347.95 K, 11400 kPa, x2 = 0.7943 | 647.2
347.95 K, 11604 kPa, x2 = 0.7943 | 653.3
347.95 K, 11812 kPa, x2 = 0.7943 | 658.7
347.95 K, 12007 kPa, x2 = 0.7943 | 663
347.95 K, 12201 kPa, x2 = 0.7943 | 666.8
347.95 K, 12502 kPa, x2 = 0.7943 | 672.6
347.95 K, 12802 kPa, x2 = 0.7943 | 677.6
347.95 K, 13202 kPa, x2 = 0.7943 | 684
347.95 K, 13504 kPa, x2 = 0.7943 | 688.5
347.95 K, 13802 kPa, x2 = 0.7943 | 692.8
347.95 K, 14109 kPa, x2 = 0.7943 | 696.9
347.95 K, 14406 kPa, x2 = 0.7943 | 700.5
347.95 K, 14703 kPa, x2 = 0.7943 | 703.9
347.95 K, 15000 kPa, x2 = 0.7943 | 707.4
347.95 K, 15207 kPa, x2 = 0.7943 | 709.6
347.95 K, 15407 kPa, x2 = 0.7943 | 711.9
347.95 K, 15610 kPa, x2 = 0.7943 | 714
347.95 K, 15813 kPa, x2 = 0.7943 | 716.1
347.95 K, 16004 kPa, x2 = 0.7943 | 717.9
347.95 K, 16303 kPa, x2 = 0.7943 | 720.7
347.95 K, 16501 kPa, x2 = 0.7943 | 722.4
347.95 K, 16808 kPa, x2 = 0.7943 | 725
347.96 K, 10989 kPa, x2 = 0.9492 | 348.5
347.96 K, 11505 kPa, x2 = 0.9492 | 382.4
347.96 K, 12004 kPa, x2 = 0.9492 | 415.7
347.96 K, 12507 kPa, x2 = 0.9492 | 448.4
347.96 K, 13000 kPa, x2 = 0.9492 | 477.1
347.96 K, 13503 kPa, x2 = 0.9492 | 503
347.96 K, 14006 kPa, x2 = 0.9492 | 527.8
347.96 K, 14511 kPa, x2 = 0.9492 | 550.1
347.96 K, 15011 kPa, x2 = 0.9492 | 569.6
347.96 K, 15495 kPa, x2 = 0.9492 | 586.6
347.96 K, 15997 kPa, x2 = 0.9492 | 602.4
347.96 K, 16514 kPa, x2 = 0.9492 | 617
347.96 K, 17014 kPa, x2 = 0.9492 | 629.5
347.96 K, 17513 kPa, x2 = 0.9492 | 640.4
347.96 K, 17988 kPa, x2 = 0.9492 | 648.6
347.97 K, 5098 kPa, x2 = 0.2003 | 745.6
347.97 K, 5302 kPa, x2 = 0.2003 | 746.1
347.97 K, 5533 kPa, x2 = 0.2003 | 746.5
347.97 K, 6025 kPa, x2 = 0.2003 | 747.4
347.97 K, 6609 kPa, x2 = 0.2003 | 748.4
347.97 K, 7005 kPa, x2 = 0.2003 | 749.2
347.97 K, 7508 kPa, x2 = 0.2003 | 750.1
347.97 K, 8010 kPa, x2 = 0.2003 | 751
347.97 K, 8501 kPa, x2 = 0.2003 | 751.7
347.97 K, 8915 kPa, x2 = 0.2003 | 752.4
347.97 K, 9581 kPa, x2 = 0.2003 | 753.5
347.97 K, 9706 kPa, x2 = 0.2003 | 753.7
347.97 K, 10014 kPa, x2 = 0.2003 | 754.2
